Data on one substance can be found in US9888679B2, “Protection of progenitor cells and regulation of their differentiation” (Proteobioactives Pty Ltd, priority 2007, dated 2018).

Assay [1] deals with murine ATDC5 progenitor cells. In words: Viability after freeze-thawing cycle, MTT assay. Format: cell-based. As to the method: FIG. 2. Bar graph showing the viability of different numbers of murine ATDC5 progenitor cells suspended in cryogenic media containing 7.5% DMSO and various concentrations of Pentosan Polysulfate (PPS) after being subjected to freeze-thawing cycle. Cell viability was determined using the mitochondrial dehydrogenase MTT assay.
Murine Progenitor cells (cell lines C3H10T1/2 or ATDC5) purchased from RIKEN Cell Bank (Tsukuba, Japan) or human immunoselected Stro-1+ progenitor cells (Mesoblast Ltd, Melbourne, Australia) were seeded at a various cell densities over the range of 1.68×10^5-1.0×10^6 cells into 2 mL screw-capped centrifuge tubes containing in DMEM+10% FBS. In separate tubes a stock solution containing 2× the required concentrations of PPS dissolved in DMEM+20% FBS and 15% DMSO were prepared. These stock solutions were added to the cell cultures such that the final concentration of PPS was half that of the stock concentration and of FBS was 10% and DMSO was […]. […] All concentrations of PPS used were examined in triplicated. Cells and the cryopreservation solutions containing the PPS were mixed gently for 5 mins and stored in liquid nitrogen. After 3 days, the tubes were removed from liquid nitrogen and thawed in 37° C. water bath and allowed to stand at ambient temperature for about 15 min. The cells were centrifuged down at 200 g for 5 min and the supernatant discarded. The cells were washed with 900 ul of DMEM without phenol red, and then centrifuged down at 200 g for 5 min. The cells were resuspended in 500 ul of 1 mg/ml MTT solution in DMEM and incubated in 37° C. for 3 hours then centrifuged at 6000 g for 5 min. 300 ul of DMSO was added to each tube to dissolved the dye crystals. 90 ul×3 from each tube were transferred to a 96-well plate and the absorbance at 540 nm determined.
Cell viability was determined using the MTT assay.

The test system of assay [2] is Primary human progenitor cells. Put plainly: Differentiation in osteogenic media: mineralisation assay. Format: cell-based. The following applies: for differentiation into osteoblasts/osteocytes: osteogenic media, particularly at 1 and 10 micrograms PPS/mL, FIG. 7. On the procedure: FIG. 7. The Effects of Pentosan Polysulfate (PPS) on Human progenitor cell Differentiation: Mineralisation Assay. Primary human progenitor cells were cultured in 96 wells plates in non-osteoinductive growth media (media control) or in osteoinductive conditions (alphaMEM supplemented with 10% FCS, 100 microM L-ascorbate-2-phosphate, dexamethasone 10^−7 M and 3 mM inorganic phosphate) in the presence of PPS at the indicated concentrations. On day 28, the concentration of acid solubilisd calcium per well was determined using the Cresolphthalein Complexone method. (A) The concentration of acid solubilised calcium per microg of DNA/well was determined following the assessment of the total amount of DNA per well using a fluorogenic DNA stain (Hoeshst 33258). […] (B) Phase-contrast photomicrographs of mineralised cultures at ×20 magnification.
The conditions necessary for the induction of human progenitor cells to develop mineralised bone matrix in vitro have been previously described (Gronthos S, A C Zannettino, S J Hay, S Shi, S E Graves, A Kortesidis and P J Simmons. (2003). Molecular and cellular characterisation of highly purified stromal stem cells derived from human bone marrow. J Cell Sci 116:1827-1835). The osteoinductive media consists of alpha-MEM media supplemented with 2% (v/v) FCS, 1.8 mM KH2PO4, 10-7 dexamethasone sodium phosphate, 50 IU/ml penicillin, 50 μg/mL streptomycin, 1 mM Sodium Pyruvate, 100 μM L-Ascorbic acid 2-phosphate, 2 mM L-glutamine and 10 mM HEPES buffer. […]
Total mineral content per well in the above cultures was assessed by measuring the calcium levels per total DNA in each well. […] The acid-solubilzed mineral 23 was transferred to a new 96-well plate and reacted with o-cresol-phthalein-complexone (Thermal Electron Corporation, USA) to form a purple dye that was measured at 570 nm using an EL 808 Ultra Microplate Reader. […] Absolute absorbance was determined by measuring against a series of DNA standards at 350 nm by LS55 Luminescence Spectrometer (Perkin Elmer).

For a further assay, the system named is Type II collagen. In words: Gene expression in 6-day pellet culture (RT-PCR). Format: cell-based, murine. The following applies: ATDC5 cells; 6 days in pellet culture; FIG. 13. As to the method: FIG. 13. Gene Expression by ATDC5 cells of Type II collagen and Sox-9 in 6-day pellet culture incubated with various concentrations of PPS in Maintenance Medium (MM).
(§1) Total RNA was isolated from Progenitor cells according to the manufacturer's instructions for the Aurum total RNA mini kit (Bio-Rad, USA). The RNA was reverse transcribed with RevertAid™ H Minus First Stand cDNA Synthesis Kit (Fermentas, USA). PCR products were transferred to an agarose gel, and visualized by ethidium bromide staining, and integrated densities calculated using Scion image analysis software, normalized to the house-keeping gene Glyceraldehydes-3-phosphate dehydrogenase (GAPDH) to permit semi-quantitative comparisons in mRNA levels. (L. Marchuk, P. Sciore, C. Reno, C. B. Frank, D. A. Hart. Postmortem stability of total RNA isolated from rabbit ligament, tendon and cartilage, Biochim Biophys Acta. 1379 (1998) 171-177. R. Boykiw, P. Sciore, C. Reno, L. Marchuk, C. B. Frank, D. A. Hart. Altered levels of extracellular matrix molecule mRNA in healing rabbit ligaments, Matrix Biol. 17 (1998) 371-378.)

Another assay relates to Smad 2. Put plainly: RT-PCR gene expression, 2 day monolayer ATDC5 cultures. Format: cell-based, murine. The following applies: ATDC5 cells; concentrations shown to stimulate PG synthesis; FIG. 26.
Text: (§2) FIG. 26. RT-PCR detection of gene expression of Runx2 and the transduction proteins, Smad 2 and Smad 4 and the housekeeping gene NADPH expressed by Murine ATDC5 progenitor cells cultured in the presence and absence of rhNC4 (Batch PBA-1209P) and PPS for 2 days in monolayer cultures.
as §1

The subject of another assay is Smad 4. The assay is described as above. Format: cell-based, murine. The following applies: ATDC5 cells; concentrations shown to stimulate PG synthesis; FIG. 26.
Text: as §2, §1

As for pentosan polysulfate [PPS], the “cell viability after freeze-thawing (MTT)” value in assay [1] (100 μg/ml PPS, 0.25, 0.5 and 1.0 million cells) is “viability was enhanced”; in assay [1] (500 μg/ml PPS, 0.25 million and 0.5 million cells), “enhancement is seen”; in assay [1] (500 μg/ml PPS, 1 million cells), “did not appear to enhance viability but was not detrimental to viability”; in assay [1] (7.5% DMSO, all PPS concentrations, FIG. 2), “enhanced by the presence of PPS at all concentrations”. Further, the differentiation into osteoblasts/osteocytes entry in assay [2] is recorded as “suppressed differentiation into osteocytes”; in assay [2] (listed as polysulfated polysaccharides) it was “suppress differentiation of progenitor cells to this cell phenotype”. In addition, the “calcified deposits in cultures (photomicrographs)” value in assay [2] (osteoinductive conditions, FIG. 7B) is “no calcified deposits are present”. The “type II collagen expression” value with Type II collagen is on record as “up-regulated in a concentration dependent manner”. In addition, the “expression of Smad 2” value in the assay on Smad 2 is given as “up regulation”. Further, in the assay on Smad 4, the “expression of Smad 4” value is “up regulation”.
